Source: PubChem BioAssay AID2060906 (Molecular Pharmacology Branch, DTP, NCI, 2025)

Test system: 485176-168-R4-J1-PDC complex spheroid growth
Assay: Anticancer human tumor 485176-168-R4-J1-PDC patient-derived pancreatic adenocarcinoma cell line growth inhibition [RAS]
Conditions: for IC50: curve of first compound; for viability, T/C: stronger effect = lower value; active = viability on the fitted dose curve at most 10% of control; inactive = the rest
Method in brief: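 Multi-cell-type spheroids: tumor cells plus HUVEC endothelial cells and mesenchymal stem cells. RAS-pathway inhibitors were combined with targeted agents, each dosed in half-log steps down from clinical Cmax, or from 10 microM when Cmax was unknown.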

[1] = second compound 0.000949 µM, first compound 0.0316 µM
[2] = second compound 0.000949 µM, first compound 0.1 µM
[3] = second compound 0.000949 µM, first compound 0.316 µM
[4] = second compound 0.000949 µM, first compound 1 µM
[5] = second compound 0.003 µM, first compound 0.0316 µM
[6] = second compound 0.003 µM, first compound 0.1 µM
[7] = second compound 0.003 µM, first compound 0.316 µM
[8] = second compound 0.003 µM, first compound 1 µM
[9] = second compound 0.00949 µM, first compound 0.0316 µM
[10] = second compound 0.00949 µM, first compound 0.1 µM
[11] = second compound 0.00949 µM, first compound 0.316 µM
[12] = second compound 0.00949 µM, first compound 1 µM
[13] = second compound 0.03 µM, first compound 0.0316 µM
[14] = second compound 0.03 µM, first compound 0.1 µM
[15] = second compound 0.03 µM, first compound 0.316 µM
[16] = second compound 0.03 µM, first compound 1 µM
[17] = second compound 0.0949 µM, first compound 0.0316 µM
[18] = second compound 0.0949 µM, first compound 0.1 µM
[19] = second compound 0.0949 µM, first compound 0.316 µM
[20] = second compound 0.0949 µM, first compound 1 µM
[21] = second compound 0.3 µM, first compound 0.0316 µM
[22] = second compound 0.3 µM, first compound 0.1 µM
[23] = second compound 0.3 µM, first compound 0.316 µM
[24] = second compound 0.3 µM, first compound 1 µM
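Also: spheroids exposed to compounds for seven days before readout.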
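For viability, T/C in this document: luminescence viability expressed relative to DMSO vehicle wells set as 100%.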

NC1c2ccccc2OC12CCN(c1cnc3c(N4CCCc5ncccc54)n[nH]c3n1)CC2 (centres undefined) + CCn1c(-c2cc(N3CCN(C)CC3)cnc2C(C)OC)c2c3cc(ccc31)-c1csc(n1)CC(NC(=O)C1CC1C)C(=O)N1CCCC(N1)C(=O)OCC(C)(C)C2
inactive: viability, T/C [1] 86.4% | viability, T/C [2] 88.8% | viability, T/C [3] 97.4% | viability, T/C [4] 85% | viability, T/C (second compound 0.000949 µM, first compound 3.16 µM) 89.2% | viability, T/C (second compound 0.000949 µM, first compound 10 µM) 79.1% | viability, T/C [5] 93.1% | viability, T/C [6] 80.9% | viability, T/C [7] 76.7% | viability, T/C [8] 97.9% | viability, T/C (second compound 0.003 µM, first compound 3.16 µM) 91.8% | viability, T/C (second compound 0.003 µM, first compound 10 µM) 81.4% | viability, T/C [9] 81.7% | viability, T/C [10] 93.2% | viability, T/C [11] 76.2% | viability, T/C [12] 81.1% | viability, T/C (second compound 0.00949 µM, first compound 3.16 µM) 81.9% | viability, T/C (second compound 0.00949 µM, first compound 10 µM) 67.2% | viability, T/C [13] 83% | viability, T/C [14] 98% | viability, T/C [15] 83.4% | viability, T/C [16] 104% | viability, T/C (second compound 0.03 µM, first compound 3.16 µM) 91% | viability, T/C (second compound 0.03 µM, first compound 10 µM) 79% | viability, T/C [17] 80.8% | viability, T/C [18] 82% | viability, T/C [19] 76.9% | viability, T/C [20] 85.2% | viability, T/C (second compound 0.0949 µM, first compound 3.16 µM) 100% | viability, T/C (second compound 0.0949 µM, first compound 10 µM) 76.9% | viability, T/C [21] 87.4% | viability, T/C [22] 86.1% | viability, T/C [23] 69% | viability, T/C [24] 80.1% | viability, T/C (second compound 0.3 µM, first compound 3.16 µM) 83.1% | viability, T/C (second compound 0.3 µM, first compound 10 µM) 75.1%
> 10000 nM: IC50 (second compound 0.000949 µM) | IC50 (second compound 0.003 µM) | IC50 (second compound 0.00949 µM) | IC50 (second compound 0.03 µM) | IC50 (second compound 0.0949 µM) | IC50 (second compound 0.3 µM)

Nc1ccn(C2OC(CO)C(O)C2(F)F)c(=O)n1 (centres undefined) + CCn1c(-c2cc(N3CCN(C)CC3)cnc2C(C)OC)c2c3cc(ccc31)-c1csc(n1)CC(NC(=O)C1CC1C)C(=O)N1CCCC(N1)C(=O)OCC(C)(C)C2
12.5 nM: IC50 (second compound 0.03 µM)
17 nM: IC50 (second compound 0.000949 µM)
18.2 nM: IC50 (second compound 0.00949 µM)
inactive: viability, T/C (second compound 0.000949 µM, first compound 0.00316 µM) 100% | viability, T/C (second compound 0.000949 µM, first compound 0.01 µM) 73.4% | viability, T/C [1] 23.1% | viability, T/C [2] 9.57% | viability, T/C [3] 11.2% | viability, T/C [4] 11.5% | viability, T/C (second compound 0.003 µM, first compound 0.00316 µM) 94% | viability, T/C (second compound 0.003 µM, first compound 0.01 µM) 80.6% | viability, T/C [5] 17.1% | viability, T/C (second compound 0.00949 µM, first compound 0.00316 µM) 79.7% | viability, T/C (second compound 0.00949 µM, first compound 0.01 µM) 86.2% | viability, T/C [9] 19.7% | viability, T/C [10] 7.74% | viability, T/C [11] 10.7% | viability, T/C [12] 12% | viability, T/C (second compound 0.03 µM, first compound 0.00316 µM) 97.9% | viability, T/C (second compound 0.03 µM, first compound 0.01 µM) 58.2% | viability, T/C [13] 15.4% | viability, T/C [14] 12.6% | viability, T/C [15] 12.6% | viability, T/C [16] 11.5% | viability, T/C (second compound 0.0949 µM, first compound 0.00316 µM) 102% | viability, T/C (second compound 0.0949 µM, first compound 0.01 µM) 63.8% | viability, T/C [17] 20.7% | viability, T/C [18] 9.33% | viability, T/C (second compound 0.3 µM, first compound 0.00316 µM) 73% | viability, T/C (second compound 0.3 µM, first compound 0.01 µM) 80.2% | viability, T/C [21] 29.2% | viability, T/C [22] 9.97% | viability, T/C [23] 9.95% | viability, T/C [24] 11.2%
17.4 nM: IC50 (second compound 0.003 µM)
19.1 nM: IC50 (second compound 0.3 µM)
14.4 nM: IC50 (second compound 0.0949 µM)
active: viability, T/C [6] 6.87% | viability, T/C [7] 8.05% | viability, T/C [8] 13.2% | viability, T/C [19] 11.3% | viability, T/C [20] 7.79%
